According to patent US10245240B2, “Treatment of prostate carcinoma” (Pellficure Pharmaceuticals, Inc., priority 2010, dated 2019):
pIC50: −log10 of the molar value.

Legend:
hepatoma = conditions: in vivo; cited from earlier work
[1] = test system: P388 lymphocytic leukemia; conditions: cited from earlier work
[2] = test system: PTEN-P2/GFP mouse cancer cells; assay: Dose response plumbagin in PTEN-P2/GFP cells, cell counting with or without DHT; assay type: cell-based; conditions: for % control / Average % control: 24 hours; for Average % control: mean of two experiments
Experimental: Cell counting: Cells in 12-well plates are washed once with PBS, detached using Trypsin, and transferred to a suspension vial in a final volume of 10 ml PBS. Cells are counted using a COULTER™ Multisizer II instrument (Beckman Coulter Inc., Hialeah, Fla.) gated for the appropriate cell size and corrected for particulate debris.
PTEN-P2/GFP mouse cancer cells were placed in androgen withdrawal medium in the presence or absence of DHT (dihydrotestosterone) at a final concentration of 10^−8 M. Plumbagin was added at the indicated concentrations for 24 hours. The absence of DHT simulates surgical or chemical castration. Cells were trypsinized and counted using a Cell Coulter counter Multisizer II, which excludes debris. Results represent cell numbers as percent of control (in which the number of cells in the absence of drug is 100%).
Androgen withdrawal medium: DMEM high-glucose phenol-red free, with the following additives: 10% charcoal-treated Fetal Bovine Serum, 25 ug/ml bovine pituitary extract, 5 ug/ml insulin, 6 ng/ml EGF recombinant.

PTEN-P2/GFP tumor = assay: In vivo effect of plumbagin combined with castration, pseudo-orthotopic chamber model (Example 5); design: species or system nude mice
Experimental: Animal model and surgical techniques: Animal experiments have been approved as appropriate. All surgical procedures are performed in a sterile laminar flow hood. Dorsal skinfold chambers and surgical instruments are autoclaved before use. Saline used to keep tissue moist during surgical preparation is mixed with gentamicin ([…]).
Male Nude mice (25-35 g body weight) are anesthetized (7.3 mg ketamine hydrochloride and 2.3 mg xylazine/100 g body weight, i.p.) and placed on a heating pad. Two symmetrical titanium frames are implanted into a dorsal skinfold, so as to sandwich the extended double layer of skin. A 15 mm full thickness circular layer is excised. The underlying muscle (M. cutaneous max.) and subcutaneous tissues are covered with a glass coverslip incorporated in one of the frames. After a recovery period of 2-3 days, prostate tissue and cancer cell spheroids are carefully placed in the chamber. Small circular Band Aids are applied on the backside of the chamber after surgery to prevent scratching. Before surgery, Buprenorphine (0.1 mg/kg) will be given IP. After surgery Meloxicam will be given in the drinking water for 4 days Meloxicam (5.0 mg/ml), is added at 35 μl per 100 ml of water to be medicated.
Preparation of stroma: A male donor mouse is euthanized and the anterior prostate tissue is excised, put in a Petri dish with antibiotics (gentamicin 50 μl/ml), and minced with fine scissors into small pieces (<1 mm^2) for implantation.
Preparation of tumor spheroids: Liquid overlay plates are generated using 1% Agarose melted in DMEM that is added to round-bottom 96-well plates (50 ul/well). […] Viability is determined using Trypan blue. […]. The size of the implanted spheroid can be determined precisely to minimize variations between animals. […]
Intravital microscopy: Fluorescence microscopy is performed using a Mikron Instrument Microscope equipped with epi-illuminator and video-triggered stroboscopic illumination from a xenon arc (MV-7600, EG&G). […]

[3] = test system: PTEN-P2/GFP prostate cancer cells; assay: Effect of naphthoquinone analogs on PTEN-P2/GFP cell proliferation (CellTiter96 formazan-based viability assay); conditions: Mus musculus, 24 h
Experimental: Cell culture: PTEN-P2/GFP are cells that stably express histone H2B-GFP fusion protein.
Cells are grown in DMEM medium containing 10% FBS, 2 mM L-glutamine, 100 U/ml penicillin/100 μg/ml streptomycin, insulin-selenium-transferrin (5 μg/ml insulin), and DHT 10^−8 M final. Androgen withdrawal is achieved by keeping the cells in phenol red-free DMEM medium containing 10% charcoal-treated FBS and the same supplements as in the normal medium except for DHT. Cells are maintained in a humidified incubator at 37° C. and 5% CO2. G418 (100 μg/ml) is added to maintain stable expression of H2B-GFP.
PTEN-P2/GFP prostate cancer cells were plated at a density of 8000 cells/well in 96-well plates (triplicates) in growing medium containing 10% Fetal Bovine Serum and DHT. The next day, increasing concentrations of a naphthoquinone analog (diluted from 10 mM DMSO stock solutions) were incubated for 24 hrs. Cell viability was determined by the formazan-based cytotoxicity assay “CellTiter96Aquaeous nonradioactive proliferation assay” (Promega).

SMILES: CC1=CC(=O)c2c(O)cccc2C1=O [Plumbagin, 5-hydroxy-2-methylnaphthalene-1,4-dione]
- effect on hepatoma (hepatoma): induced regression of hepatoma
- ED50 [1]: 4 mg/kg body weight
- efficiency of plumbagin with simulated castration (no DHT) versus plumbagin alone ([2]; in vitro, PTEN-P2/GFP cells): more efficient than treatment with plumbagin alone
- % control ([2]; noDHT, 1 μM plumbagin, first experiment): 73.70%
- Average % control ([2]; noDHT, 1 μM plumbagin): 84.83%
- % control ([2]; noDHT, 1 μM plumbagin, second experiment column): 95.96%
- % control ([2]; noDHT, 2 μM plumbagin, first experiment): 42.90%
- Average % control ([2]; noDHT, 2 μM plumbagin): 40.02%
- % control ([2]; noDHT, 2 μM plumbagin, second experiment column): 37.14%
- % control ([2]; noDHT, 4 μM plumbagin, first experiment): 10.12%
- Average % control ([2]; noDHT, 4 μM plumbagin): 5.84%
- % control ([2]; noDHT, 4 μM plumbagin, second experiment column): 1.57%
- % control ([2]; noDHT, 8 μM plumbagin, first experiment): 0.45%
- Average % control ([2]; noDHT, 8 μM plumbagin): 0.33%
- % control ([2]; noDHT, 8 μM plumbagin, second experiment column): 0.22%
- % control ([2]; with DHT, 1 μM plumbagin, first experiment): 106.93%
- Average % control ([2]; with DHT, 1 μM plumbagin): 84.11%
- % control ([2]; with DHT, 1 μM plumbagin, second experiment column): 61.29%
- % control ([2]; with DHT, 2 μM plumbagin, first experiment): 94.18%
- Average % control ([2]; with DHT, 2 μM plumbagin): 56.67%
- % control ([2]; with DHT, 2 μM plumbagin, second experiment column): 19.16%
- % control ([2]; with DHT, 4 μM plumbagin, first experiment): 22.62%
- Average % control ([2]; with DHT, 4 μM plumbagin): 13.76%
- % control ([2]; with DHT, 4 μM plumbagin, second experiment column): 4.89%
- % control ([2]; with DHT, 8 μM plumbagin, first experiment): 0.85%
- Average % control ([2]; with DHT, 8 μM plumbagin): 0.62%
- % control ([2]; with DHT, 8 μM plumbagin, second experiment column): 0.40%
- efficiency of combination of plumbagin with castration versus either treatment alone (PTEN-P2/GFP tumor; plumbagin 1 mg/kg intraperitoneal once/day soon after surgical castration): more efficient in vivo than either treatment alone
- tumor size, castration with plumbagin (PTEN-P2/GFP tumor; plumbagin 1 mg/kg ip once/day plus surgical castration): significant decreases in tumor size
- tumor size, plumbagin only (PTEN-P2/GFP tumor; plumbagin 1 mg/kg ip once/day, no castration): did not lead to a marked decrease in tumor size
- pIC50 [3]: 5.34
- viability at 1 µM ([3]; 1 μM, medium with 10% FBS and DHT): 94.6%
- viability at 2 µM ([3]; 2 μM, medium with 10% FBS and DHT): 90.9%
- viability at 3 µM ([3]; 3 μM, medium with 10% FBS and DHT): 88.9%
- viability at 4 µM ([3]; 4 μM, medium with 10% FBS and DHT): 73%
- viability at 5 µM ([3]; 5 μM, medium with 10% FBS and DHT): 32.9%
- viability at 7 µM ([3]; 7 μM, medium with 10% FBS and DHT): 0.4%
- viability at 10 µM ([3]; 10 μM, medium with 10% FBS and DHT): 0.6%
